In brackets after ≈: the same amount, converted by molar mass.
Key:
[1] = Aqueous solubility of the compound in 0.01M HCl at pH 2 by nephelometry; format: physicochemical
[2] = Aqueous solubility of the compound in phosphate buffer at pH 6.5 by nephelometry; format: physicochemical

Row | solubility kinetic [1] [µM] | solubility kinetic [2] [µM] | SMILES
1 | < 1.1 | < 1.1 | Cc1cnc(NC(=O)CCCOc2cccc(Cl)c2)s1
2 | < 1.6 | < 1.6 | N#Cc1cnc(NC(=O)CCCOc2cccc(C(F)(F)F)c2)s1
3 | < 1.6 | < 1.6 | O=C(CCCOc1cccc(C(F)(F)F)c1)Nc1ncc(C(F)(F)F)s1
4 | < 1.2 | < 1.2 | Cc1cnc(NC(=O)CCCOc2cccc(Cl)n2)s1
5 | < 1.1 | < 1.1 | Cc1cnc(NC(=O)CCCOc2cccc(C(F)(F)F)c2)s1
6 | < 1.1 | < 1.1 | Cc1cnc(NC(=O)CCCOc2cccc(C#N)c2)s1
7 | 1.1 to 2.3 (≈ 0.304 to 0.636 µg/mL) | < 1.1 | Cc1cnc(NC(=O)CCCOc2ccccc2)s1

The remaining lines, values behind:

Row | SMILES | solubility kinetic [1] [µM] | solubility kinetic [2] [µM]
8 | CC(C)c1cnc(NC(=O)CCCOc2ccccc2)s1 | < 1.2 | < 1.2
9 | Cc1cnc(NC(=O)CCCOc2cncc(Cl)c2)s1 | 1.6 to 3.1 (≈ 0.499 to 0.967 µg/mL) | 3.1 to 6.3 (≈ 0.967 to 1.96 µg/mL)
10 | N#Cc1cnc(NC(=O)CCCOc2cccc(Cl)c2)s1 | < 1.6 | < 1.6
11 | Cc1cnc(NC(=O)NCCOc2ccc(Cl)c(C)c2)s1 | 1.6 to 3.1 (≈ 0.521 to 1.01 µg/mL) | < 1.6
12 | N#Cc1cnc(NC(=O)CCCOc2ccccc2)s1 | 1.1 to 2.2 (≈ 0.316 to 0.632 µg/mL) | 1.1 to 2.2 (≈ 0.316 to 0.632 µg/mL)
13 | O=C(CCCOc1ccccc1)Nc1ncc(Cl)s1 | < 1.2 | < 1.2

From ChEMBL document CHEMBL4396867, “Identification of 5-Substituted 2-Acylaminothiazoles That Activate Tat-Mediated Transcription in HIV-1 Latency Models” (J Med Chem, 2019)
